Test results: PMC5331433, “Ustiloxin G, a New Cyclopeptide Mycotoxin from Rice False Smut Balls” (Toxins, 2017)

Tests used:
NCI-H1650 = assay: Cytotoxicity, MTT assay, NCI-H1650; type: cell-based, human; conditions: non-small-cell lung carcinoma cells, 24 h treatment, absorbance 570 nm, three replicates
Experimental: (§1) Cytotoxicity of the compounds were tested against human carcinoma cells using the microculture methyl-thiazolyl-tetrazolium (MTT) assay as described previously. Briefly, the cell lines were maintained in a humidified atmosphere containing 5% CO2 at 37 °C. For preparing working solution, 1 μmol of each purified ustiloxin was dissolved in 10 mL of ultrapure water to obtain the stock solution (100 μM), which was further diluted to a series of concentrations (50, 25, 12.5, 6.25, 3.125, 1, 0.1, 1 × 10^−2, 1 × 10^−3, 1 × 10^−4, 1 × 10^−5 μM) with ultrapure water. Normally, 200 μL of the cell suspensions (5 × 10^4 cells/mL) was plated in 96-well culture plates at 37 °C. After 12 h, 20 μL of working solution was added to each well respectively and cultured at 37 °C for 24 h. Then, MTT was dissolved in saline to 5 mg/mL, and 20 μL of this solution was added to each well. After 4 h, the medium was removed, and then 100 μL of DMSO was added to dissolve any formazan crystals formed. Absorbance was then determined at 570 nm. The cell lines of colon cancer cells (HCT-116), non-small-cell lung carcinoma cells (NCI-H1650), gastric cancer cells (BGC-823), and liver hepatocellular carcinoma cells (HepG2) were tested for all isolated compounds. In addition, lung adenocarcinoma cells (A549) were tested on ustiloxins A (2), B (3), and G (1), and melanoma cells (A375) were tested on ustiloxin G (1). Ultrapure water and taxol were used as the negative and positive controls, respectively. All experiments were performed with three replicates.

[1] = test system: rice (Oryza sativa) seeds, radicle; assay: Inhibition of radicle elongation of rice seeds; conditions: 48 h, 25 °C, dark, mean of triplicate ± SD
Experimental: (§2) Phytotoxicity of the compounds was evaluated by their inhibitory activities on the radicle and germ elongation of rice (Oryza sativa) seeds. Two varieties (Lijiang and Zhonghua 11) of the seeds, which were obtained from Prof. Zejian Guo (Department of Plant Pathology and collected in 2015, China Agricultural University) were used.
(§3) The bioassay was performed using the method described previously with some modifications. Briefly, five 3-day germinated rice seeds of each rice variety were sown onto each well of a 24-well plate, containing 200 μL of working solution. For preparing working solution, 1 mg of each purified compound was dissolved in 1 mL of ultrapure water to obtain the stock solution (1 mg/mL), which was further diluted to a series of concentrations (200, 100, 50, 20, and 10 μg/mL) with ultrapure water. The ultrapure water was used as the negative control, and glyphosate (N-(phosphonomethyl)glycine) at the same concentrations as the positive control. Plates were incubated in a moist chamber at 25 °C in the dark. The length of each radicle or germ was measured after treatment for 48 h. The inhibition of radicle or germ elongation was calculated as follows: Inhibition (%) = [(Lc − Lt)/Lc] × 100, where Lc is the radicle or germ length of the control group, and Lt is the length of the treated group.
(§4) All experiments were performed with three replicates, and the results were represented by their mean values and the standard deviations (SD). The data were carried out using analysis of variance (one-way ANOVA) to detect significant differences by PROC ANOVA of SAS version 8.2.

HCT116 = assay: Cytotoxicity, MTT assay, HCT116; type: cell-based, human; conditions: colon cancer cells, 24 h treatment, absorbance 570 nm, three replicates
Experimental: as §1

BGC-823 = assay: Cytotoxicity, MTT assay, BGC-823; type: cell-based, human; conditions: gastric cancer cells, 24 h treatment, absorbance 570 nm, three replicates
Experimental: as §1

HepG2 = assay: Cytotoxicity, MTT assay, HepG2; type: cell-based, human; conditions: liver hepatocellular carcinoma cells, 24 h treatment, absorbance 570 nm, three replicates
Experimental: as §1

[2] = test system: rice (Oryza sativa) seeds, germ; assay: Inhibition of germ elongation of rice seeds; conditions: 48 h, 25 °C, dark, mean of triplicate ± SD
Experimental: as §2, §3, §4

A549 = assay: Cytotoxicity, MTT assay, A549; type: cell-based, human; conditions: lung adenocarcinoma cells, 24 h treatment, absorbance 570 nm, three replicates
Experimental: as §1

rice seedlings = assay: Abnormal swelling of roots and germs of rice seedlings; design: species or system Oryza sativa; conditions: observation in words; Figure 3B shows 200 µg/mL of ustiloxin G, variety Lijiang
Experimental: as §3

Row | Structure (SMILES) | Inhibition Ratio (%) Seed Radicle Var. Lijiang ([1]; 10 µg/mL) | Inhibition Ratio (%) Seed Radicle Var. Zhonghua 11 ([1]; 10 µg/mL) | Inhibition Ratio (%) Seed Radicle Var. Lijiang ([1]; 20 µg/mL) | Inhibition Ratio (%) Seed Radicle Var. Zhonghua 11 ([1]; 20 µg/mL) | Inhibition Ratio (%) Seed Radicle Var. Lijiang ([1]; 50 µg/mL) | Inhibition Ratio (%) Seed Radicle Var. Zhonghua 11 ([1]; 50 µg/mL) | Inhibition Ratio (%) Seed Radicle Var. Lijiang ([1]; 100 µg/mL) | Inhibition Ratio (%) Seed Radicle Var. Zhonghua 11 ([1]; 100 µg/mL) | Inhibition Ratio (%) Seed Radicle Var. Lijiang ([1]; 200 µg/mL) | Inhibition Ratio (%) Seed Radicle Var. Zhonghua 11 ([1]; 200 µg/mL) | Inhibition Ratio (%) Seed Germ Var. Lijiang ([2]; 10 µg/mL) | Inhibition Ratio (%) Seed Germ Var. Zhonghua 11 ([2]; 10 µg/mL) | Inhibition Ratio (%) Seed Germ Var. Lijiang ([2]; 20 µg/mL) | Inhibition Ratio (%) Seed Germ Var. Zhonghua 11 ([2]; 20 µg/mL) | Inhibition Ratio (%) Seed Germ Var. Lijiang ([2]; 50 µg/mL) | Inhibition Ratio (%) Seed Germ Var. Zhonghua 11 ([2]; 50 µg/mL) | Inhibition Ratio (%) Seed Germ Var. Lijiang ([2]; 100 µg/mL) | Inhibition Ratio (%) Seed Germ Var. Zhonghua 11 ([2]; 100 µg/mL) | Inhibition Ratio (%) Seed Germ Var. Lijiang ([2]; 200 µg/mL) | Inhibition Ratio (%) Seed Germ Var. Zhonghua 11 ([2]; 200 µg/mL) | further results
1 | CC[C@@]1(C)Oc2cc(ccc2O)[C@@H](O)[C@H](NC)C(=O)N[C@@H](C(C)C)C(=O)N[C@@H]1C(=O)NCC(=O)O [Ustiloxin D (4), ustiloxin D] | 4.43 ± 5.47 l % | 13.55% | 5.42 ± 3.45 l % | 23.31% | 11.89% | 41.47 ± 4.88 e % | 79.92 ± 6.26 c % | 90.79 ± 0.94 a % | 94.92 ± 0.79 a % | 93.90 ± 2.11 a % | 10.73% | 10.98% | 11.67% | 12.28% | 11.87% | 16.19% | 19.92% | 25.48% | 38.76 ± 5.68 e % | 31.86% | IC50 (NCI-H1650): > 50 µM; IC50 (HCT116): > 50 µM; IC50 (BGC-823): > 50 µM; IC50 (HepG2): > 50 µM
2 | CC[C@@]1(C)Oc2cc(ccc2O)[C@@H](O)[C@H](NC)C(=O)N[C@@H](C)C(=O)N[C@@H]1C(=O)NCC(=O)O [Ustiloxin F (5), ustiloxin F] | 5.07 ± 4.95 l % | 0.75% | 8.97% | 9.59 ± 3.80 l % | 22.17% | 16.51% | 26.72 ± 5.84 h % | 23.78% | 38.25% | 36.83% | 7.07% | 1.89 ± 4.86 p % | 7.90 ± 4.3 k1% | 9.36% | 9.14% | 14.97% | 15.16% | 17.77% | 24.57% | 18.71% | IC50 (NCI-H1650): > 50 µM; IC50 (HCT116): > 50 µM; IC50 (BGC-823): > 50 µM; IC50 (HepG2): > 50 µM
3 | CC[C@@]1(C)Oc2cc(c([S+]([O-])C[C@@H](O)C[C@H](N)C(=O)O)cc2O)[C@@H](O)[C@H](NC)C(=O)N[C@@H](C)C(=O)N[C@@H]1C(=O)NCC(=O)O (stereo partly drawn) [Ustiloxin B (3), ustiloxin B] | 4.16 ± 0.66 l % | 11.90 ± 6.45 l % | 14.27% | 20.22% | 53.24 ± 4.98 e % | 54.78 ± 3.09 d % | 86.62 ± 1.98 b % | 87.80% | 95.32 ± 1.32 a % | 93.04 ± 2.10 a % | 13.54% | 3.30% | 20.63% | 12.02% | 37.98 ± 3.83 e % | 35.60% | 49.65 ± 2.13 d % | 44.72% | 64.39% | 55.61 ± 2.75 a % | IC50 (A549): > 50 µM; IC50 (NCI-H1650): 21.6 µM; IC50 (HCT116): 7.2 µM; IC50 (BGC-823): 1.03 µM; abnormal swelling of the roots and germs of rice seedlings (rice seedlings): abnormal swelling; IC50 (HepG2): 13 µM
4 | O=C(O)CNCP(=O)(O)O [Glyphosate, N-(phosphonomethyl)glycine, reference compound] | 36.84 ± 2.91 g % | 28.24% | 62.91 ± 5.03 d % | 41.52 ± 5.20 e % | 85.08% | 68.88 ± 3.85 c % | 93.64 ± 2.66 a % | 81.05 ± 2.04 b % | 95.61 ± 2.74 a % | 87.72% | 20.99% | 21.16% | 37.82 ± 4.05 e % | 29.21% | 59.32 ± 5.06 c % | 35.36% | 68.21% | 57.60 ± 3.44 a % | 71.36 ± 2.68 a % | 58.93 ± 6.04 a % | –
5 | CC[C@@]1(C)Oc2cc(c([S+]([O-])C[C@@H](O)C[C@H](N)C(=O)O)cc2O)[C@@H](O)[C@H](NC)C(=O)N[C@@H](C(C)C)C(=O)N[C@@H]1C(=O)NCC(=O)O (stereo partly drawn) [Ustiloxin A (2), ustiloxin A] | 17.83% | 12.27 ± 6.71 l % | 43.57 ± 0.61 f % | 56.16 ± 2.30 d % | 87.38 ± 0.79 b % | 89.14 ± 4.38 a % | 94.53 ± 0.36 a % | 93.72 ± 0.54 a % | 96.64 ± 0.36 a % | 95.29 ± 1.63 a % | 11.38% | 13.25% | 18.00% | 26.59% | 39.01 ± 6.84 e % | 42.04% | 50.59 ± 6.36 d % | 45.47% | 60.27% | 52.33% | IC50 (A549): 3.12 µM; IC50 (NCI-H1650): > 50 µM; IC50 (HCT116): > 50 µM; IC50 (BGC-823): 2.66 µM; abnormal swelling of the roots and germs of rice seedlings (rice seedlings): abnormal swelling; IC50 (HepG2): > 50 µM
